Laboratory results reported in ChEMBL document CHEMBL1201862, “PubChem BioAssay data set” (2004).
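Values below derive from 48-hour exposures of cells grown in 96-well plates, with endpoints linearly interpolated between the two concentrations bracketing the appropriate inhibition level. The concentration for 50% growth inhibition is given as GI50.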 Calls of active or inactive are those of the source. Cut-off read from the data, not from the text of the source: active = GI50 up to about 1.1 µM and inactive = higher.

Legend:
Assay in all cases: inhibition of tumour cell growth, NCI panel, 48 h
786-0 = system: 786-0
A498 = system: A498
A549 = system: A549
CCRF-CEM = system: CCRF-CEM
COLO 205 = system: COLO 205
DU-145 = system: DU-145
EKVX = system: EKVX
HOP-62 = system: HOP-62
HOP-92 = system: HOP-92
Hs-578T = system: Hs-578T
KM12 = system: KM12
LOX IMVI = system: LOX IMVI
MDA-MB-435 = system: MDA-MB-435
NCI-H226 = system: NCI-H226
OVCAR-4 = system: OVCAR-4
SF-268 = system: SF-268
SW-620 = system: SW-620
TK-10 = system: TK-10
UO-31 = system: UO-31
SK-MEL-5 = system: SK-MEL-5

Measured: GI50

[N-]=[N+]=Nc1cc(=O)n2c3c(cccc13)CCC2
inactive: 786-0 > 100 µM | A498 > 100 µM | A549 > 100 µM | CCRF-CEM > 100 µM | COLO 205 > 100 µM | DU-145 > 100 µM | EKVX 43.7 µM | HOP-62 > 100 µM | HOP-92 > 100 µM | Hs-578T > 100 µM | KM12 > 100 µM | LOX IMVI > 100 µM | MDA-MB-435 > 100 µM | NCI-H226 > 100 µM | OVCAR-4 > 100 µM | SF-268 > 100 µM | SW-620 > 100 µM | TK-10 > 100 µM | UO-31 > 100 µM

COc1cc2oc(=O)ccc2cc1C(=O)CC(C)C
inactive: 786-0 > 100 µM | A498 > 100 µM | A549 > 100 µM | CCRF-CEM > 100 µM | COLO 205 > 100 µM | DU-145 > 100 µM | EKVX 94.8 µM | HOP-62 > 100 µM | HOP-92 > 100 µM | Hs-578T 38.5 µM | KM12 > 100 µM | LOX IMVI > 100 µM | MDA-MB-435 > 100 µM | NCI-H226 28.6 µM | OVCAR-4 71.1 µM | SF-268 99.3 µM | SK-MEL-5 > 100 µM | SW-620 > 100 µM | TK-10 > 100 µM | UO-31 > 100 µM

O=C(O)c1cc(CCc2cc(O)ccc2O)ccc1O
inactive: 786-0 > 100 µM | A498 > 100 µM | A549 > 100 µM | CCRF-CEM 26.9 µM | COLO 205 > 100 µM | DU-145 > 100 µM | EKVX > 100 µM | HOP-62 > 100 µM | HOP-92 > 100 µM | Hs-578T > 100 µM | KM12 > 100 µM | LOX IMVI 32.1 µM | MDA-MB-435 > 100 µM | NCI-H226 > 100 µM | OVCAR-4 > 100 µM | SF-268 > 100 µM | SK-MEL-5 > 100 µM | SW-620 39.2 µM | TK-10 > 100 µM | UO-31 > 100 µM

Oc1ccc(Cl)cc1C1=NC(NCN2CCN(CNC3=NC(c4ccccc4)CC(c4cc(Cl)ccc4O)=N3)CC2)=NC(c2ccccc2)C1 (stereo not given)
inactive: 786-0 20.9 µM | A498 47.8 µM | A549 36.1 µM | CCRF-CEM 21.5 µM | COLO 205 47.4 µM | DU-145 41.8 µM | EKVX 48.3 µM | HOP-62 42.2 µM | HOP-92 58.2 µM | Hs-578T 55.7 µM | KM12 37.1 µM | LOX IMVI 40.6 µM | MDA-MB-435 48.6 µM | NCI-H226 53.8 µM | OVCAR-4 28.9 µM | SF-268 32.7 µM | SK-MEL-5 93.5 µM | SW-620 33.1 µM | TK-10 48.8 µM | UO-31 37.3 µM

CCOC(=O)Cn1nc2ccc(Nc3c(C)[n+]([O-])c4cc(F)c(OCC)cc4[n+]3[O-])cc2n1
inactive: 786-0 29.8 µM | A498 > 100 µM | CCRF-CEM > 100 µM | DU-145 > 100 µM | EKVX > 100 µM | HOP-62 33 µM | HOP-92 18.2 µM | Hs-578T 40.7 µM | KM12 > 100 µM | LOX IMVI > 100 µM | MDA-MB-435 > 100 µM | NCI-H226 > 100 µM | OVCAR-4 > 100 µM | SF-268 50.9 µM | SK-MEL-5 > 100 µM | SW-620 > 100 µM | TK-10 27.5 µM | UO-31 > 100 µM

NC1C/C(=N\O)c2c(Cl)sc(Cl)c21 (stereo not given)
inactive: 786-0 18.1 µM | A498 20.2 µM | A549 29.3 µM | CCRF-CEM 3.17 µM | COLO 205 25.4 µM | DU-145 15.1 µM | EKVX 18.5 µM | HOP-62 21.5 µM | HOP-92 22.9 µM | Hs-578T 59.3 µM | KM12 12 µM | LOX IMVI 3.11 µM | MDA-MB-435 15.6 µM | NCI-H226 21.9 µM | OVCAR-4 17.3 µM | SF-268 29.4 µM | SW-620 17.9 µM | TK-10 17.5 µM | UO-31 17.4 µM

CC(=C/C=C/C=C(C)\C=C\C=C(\C)C(=O)O)/C=C/C=C(/C)C(=O)O
inactive: 786-0 > 100 µM | A498 > 100 µM | A549 > 100 µM | CCRF-CEM > 100 µM | COLO 205 > 100 µM | DU-145 > 100 µM | HOP-62 > 100 µM | HOP-92 > 100 µM | Hs-578T > 100 µM | KM12 > 100 µM | LOX IMVI > 100 µM | MDA-MB-435 > 100 µM | NCI-H226 > 100 µM | OVCAR-4 > 100 µM | SF-268 > 100 µM | SK-MEL-5 > 100 µM | SW-620 > 100 µM | TK-10 > 100 µM | UO-31 > 100 µM
